Key:
[1] = biological target: Muscarinic acetylcholine receptor M1 (Homo sapiens) (UniProt P11229); assay: Displacement of [3H]pirenzepine from human recombinant muscarinic M1 receptor expressed in CHO cells at 10 uM after 60 mins by scintillation counting; type: cell-based
Rattus norvegicus [2] = species on record: Rattus norvegicus; assay: Displacement of [3H]GABA from GABA receptor in rat cerebral cortex at 10 uM after 60 mins by scintillation counting; type: tissue-based
[3] = biological target: 5-hydroxytryptamine receptor 3A (Homo sapiens) (UniProt P46098); assay: Displacement of [3H]BRL43694 from human recombinant 5HT3 receptor expressed in CHO cells at 10 uM after 120 mins by scintillation counting; type: cell-based
Rattus norvegicus [4] = species on record: Rattus norvegicus; assay: Displacement of [125I][Tyr4]bombesin from Bombesin receptor in rat cerebral cortex at 10 uM after 60 mins by scintillation counting; type: tissue-based
[5] = biological target: C-X-C chemokine receptor type 2 (Homo sapiens) (UniProt P25025); assay: Displacement of [125I]IL-8 from human recombinant CXCR2 receptor expressed in HEK293 cells at 10 uM after 60 mins by scintillation counting; type: cell-based
[6] = biological target: Substance-K receptor (Homo sapiens) (UniProt P21452); assay: Displacement of [125I]NKA from human recombinant NK2 receptor expressed in CHO cells at 10 uM after 60 mins by scintillation counting; type: cell-based
[7] = biological target: D(3) dopamine receptor (Homo sapiens) (UniProt P35462); assay: Displacement of [3H]methyl-spiperone from human recombinant dopamine D3 receptor expressed in CHO cells at 10 uM after 60 mins by scintillation counting; type: cell-based
[8] = biological target: Adrenergic receptor alpha-2 (Rattus norvegicus) (UniProt P22086+P19328+P22909); assay: Displacement of [3H]RX 821002 from alpha2 receptor in rat cerebral cortex at 10 uM after 60 mins by scintillation counting; type: tissue-based
[9] = biological target: Cannabinoid receptor 1 (Homo sapiens) (UniProt P21554); assay: Displacement of [3H]CP-55940 from human recombinant CB1 receptor expressed in CHO cells at 10 uM after 120 mins by scintillation counting; type: cell-based
[10] = biological target: Neuromedin-K receptor (Homo sapiens) (UniProt P29371); assay: Displacement of [3H]SR142801 from human recombinant NK3 receptor expressed in CHO cells at 10 uM after 120 mins by scintillation counting; type: cell-based
[11] = biological target: Small conductance calcium-activated potassium channel (Rattus norvegicus) (UniProt P70604+P70606+P70605); assay: Displacement of [125I]apamin from SK […] channel in rat cerebral cortex at 10 uM after 60 mins by scintillation counting; type: tissue-based
[12] = biological target: Neuropeptide Y receptor type 2 (Homo sapiens) (UniProt P49146); assay: Displacement of [125I]peptideYY from neuropeptide Y2 receptor in human KAN-TS cells at 10 uM after 60 mins by scintillation counting; type: cell-based
[13] = biological target: Adrenergic receptor alpha-1 (Rattus norvegicus) (UniProt P15823+P23944+P43140); assay: Displacement of [3H]prazosin from alpha1 receptor in rat cerebral cortex at 10 uM after 60 mins by scintillation counting; type: tissue-based
[14] = biological target: D(4) dopamine receptor (Homo sapiens) (UniProt P21917); assay: Displacement of [3H]methyl-spiperone from human recombinant D4.4 receptor expressed in CHO cells at 10 uM after 60 mins by scintillation counting; type: cell-based
[15] = biological target: 5-hydroxytryptamine receptor 6 (Homo sapiens) (UniProt P50406); assay: Displacement of [3H]LSD from human recombinant 5HT6 receptor expressed in CHO cells at 10 uM after 120 mins by scintillation counting; type: cell-based
[16] = biological target: Calcitonin gene-related peptide type 1 receptor (Homo sapiens) (UniProt Q16602); assay: Displacement of [125I]hCGRPa from human recombinant CGRP receptor expressed in CHO cells at 10 uM after 90 mins by scintillation counting; type: cell-based
[17] = biological target: Muscarinic acetylcholine receptor M3 (Homo sapiens) (UniProt P20309); assay: Displacement of [3H]4-DAMP from human recombinant muscarinic M3 receptor expressed in CHO cells at 10 uM after 60 mins by scintillation counting; type: cell-based
[18] = biological target: Tumor necrosis factor (Homo sapiens) (UniProt P01375); assay: Displacement of [125I]TNF-a from TNFalpha in human U937 cells at 10 uM after 120 mins by scintillation counting; type: cell-based; details: U-937
[19] = biological target: Vasoactive intestinal polypeptide receptor 1 (Homo sapiens) (UniProt P32241); assay: Displacement of [125I]VIP from human recombinant VPAC1 receptor expressed in CHO cells at 10 uM after 60 mins by scintillation counting; type: cell-based
[20] = biological target: Beta-2 adrenergic receptor (Homo sapiens) (UniProt P07550); assay: Displacement of [3H](-)CGP 12177 from human recombinant beta2 adrenergic receptor expressed in CHO cells at 10 uM after 120 mins by scintillation counting; type: cell-based
[21] = biological target: Endothelin receptor type B (Homo sapiens) (UniProt P24530); assay: Displacement of [125I]endothelin-1 from human recombinant ETB receptor expressed in CHO cells at 10 uM after 120 mins by scintillation counting; type: cell-based
P2X purinoceptor 5 = P2X purinoceptor 5 (Homo sapiens, UniProt Q93086); assay: Antagonist activity at P2X5 receptor; type: functional
[22] = biological target: Beta-1 adrenergic receptor (Homo sapiens) (UniProt P08588); assay: Displacement of [3H]RX 821002 from human recombinant beta-1 adrenergic receptor expressed in HEK293 cells at 10 uM after 60 mins by scintillation counting; type: cell-based
[23] = biological target: Sodium-dependent serotonin transporter (Homo sapiens) (UniProt P31645); assay: Displacement of [3H]imipramine from human recombinant SERT expressed in CHO cells at 10 uM after 60 mins by scintillation counting; type: cell-based
[24] = biological target: Muscarinic acetylcholine receptor M2 (Homo sapiens) (UniProt P08172); assay: Displacement of [3H]AF-DX 384 from human recombinant muscarinic M2 receptor expressed in CHO cells at 10 uM after 60 mins by scintillation counting; type: cell-based
[25] = biological target: Muscarinic acetylcholine receptor M5 (Homo sapiens) (UniProt P08912); assay: Displacement of [3H]4-DAMP from human recombinant muscarinic M5 receptor expressed in CHO cells at 10 uM after 60 mins by scintillation counting; type: cell-based
[26] = Protein binding in rat plasma; type: ADME, cell-free; details: read-out: PPB (converted)
[27] = biological target: 5-hydroxytryptamine receptor 2B (Homo sapiens) (UniProt P41595); assay: Displacement of [125I](+/-)DOI from human recombinant 5HT2B receptor expressed in CHO cells at 10 uM after 60 mins by scintillation counting; type: cell-based
[28] = biological target: Adenosine receptor A2a (Homo sapiens) (UniProt P29274); assay: Displacement of [3H]CGS 21680 from human adenosine A2A receptor expressed in HEK293 cells at 10 uM after 120 mins by scintillation counting
[29] = biological target: Cholecystokinin receptor type A (Homo sapiens) (UniProt P32238); assay: Displacement of [125I]CCK-8s from human recombinant CCK1 receptor expressed in CHO cells at 10 uM after 60 mins by scintillation counting; type: cell-based
[30] = biological target: Type-2 angiotensin II receptor (Homo sapiens) (UniProt P50052); assay: Displacement of [125I]CGP 42112A from human recombinant AT2 receptor expressed in HEK293 cells at 10 uM after 4 hrs by scintillation counting; type: cell-based
Chain of Type-2 angiotensin II receptor (Homo sapiens) (P50052 whole entry): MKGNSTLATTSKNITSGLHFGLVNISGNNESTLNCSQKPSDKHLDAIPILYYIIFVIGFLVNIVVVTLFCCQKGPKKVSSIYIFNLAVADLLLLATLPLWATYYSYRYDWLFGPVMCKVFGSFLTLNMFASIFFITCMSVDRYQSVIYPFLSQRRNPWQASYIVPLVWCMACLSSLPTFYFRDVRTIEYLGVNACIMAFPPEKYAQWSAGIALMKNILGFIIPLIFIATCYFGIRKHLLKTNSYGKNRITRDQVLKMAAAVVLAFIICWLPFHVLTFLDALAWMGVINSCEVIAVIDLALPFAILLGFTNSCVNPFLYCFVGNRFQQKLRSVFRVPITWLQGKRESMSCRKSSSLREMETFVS

Chain of 5-hydroxytryptamine receptor 6 (Homo sapiens) (P50406 whole entry): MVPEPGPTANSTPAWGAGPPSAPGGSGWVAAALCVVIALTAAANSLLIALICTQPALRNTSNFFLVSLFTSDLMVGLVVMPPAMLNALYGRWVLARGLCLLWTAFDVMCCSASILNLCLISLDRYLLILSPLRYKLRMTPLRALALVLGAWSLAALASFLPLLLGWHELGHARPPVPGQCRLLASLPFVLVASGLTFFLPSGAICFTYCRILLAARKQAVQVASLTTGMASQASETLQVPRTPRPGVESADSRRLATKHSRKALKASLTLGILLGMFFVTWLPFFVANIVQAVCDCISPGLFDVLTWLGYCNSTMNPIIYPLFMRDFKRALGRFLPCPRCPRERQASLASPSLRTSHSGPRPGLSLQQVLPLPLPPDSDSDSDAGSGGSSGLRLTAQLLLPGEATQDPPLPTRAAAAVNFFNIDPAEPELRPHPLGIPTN
Chain of Beta-2 adrenergic receptor (Homo sapiens) (P07550 whole entry, looked up): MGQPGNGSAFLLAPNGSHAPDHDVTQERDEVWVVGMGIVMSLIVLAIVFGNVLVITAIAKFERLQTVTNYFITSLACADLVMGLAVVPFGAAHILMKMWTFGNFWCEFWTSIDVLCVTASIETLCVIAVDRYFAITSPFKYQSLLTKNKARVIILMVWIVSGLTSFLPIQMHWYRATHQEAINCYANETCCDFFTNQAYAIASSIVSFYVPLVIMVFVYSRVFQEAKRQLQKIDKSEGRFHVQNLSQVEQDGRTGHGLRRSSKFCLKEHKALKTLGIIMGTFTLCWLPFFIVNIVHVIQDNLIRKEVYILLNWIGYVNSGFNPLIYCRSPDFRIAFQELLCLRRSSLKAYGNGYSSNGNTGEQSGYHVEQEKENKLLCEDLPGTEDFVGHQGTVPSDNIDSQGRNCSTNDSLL
Chain of Cannabinoid receptor 1 (Homo sapiens) (P21554 whole entry): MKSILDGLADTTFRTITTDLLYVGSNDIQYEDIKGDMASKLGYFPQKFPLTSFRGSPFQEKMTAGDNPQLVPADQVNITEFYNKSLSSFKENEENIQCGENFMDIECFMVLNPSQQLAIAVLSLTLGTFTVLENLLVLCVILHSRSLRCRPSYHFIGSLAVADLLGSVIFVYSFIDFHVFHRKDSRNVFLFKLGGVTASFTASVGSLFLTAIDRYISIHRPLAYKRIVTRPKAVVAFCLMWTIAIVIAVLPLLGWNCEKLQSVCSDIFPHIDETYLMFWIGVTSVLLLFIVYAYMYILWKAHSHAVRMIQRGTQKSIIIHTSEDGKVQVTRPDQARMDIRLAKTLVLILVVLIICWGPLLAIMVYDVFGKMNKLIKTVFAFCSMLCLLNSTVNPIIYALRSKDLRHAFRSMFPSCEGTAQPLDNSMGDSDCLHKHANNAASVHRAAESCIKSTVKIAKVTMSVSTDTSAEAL
Chain of Neuropeptide Y receptor type 2 (Homo sapiens) (P49146 whole entry): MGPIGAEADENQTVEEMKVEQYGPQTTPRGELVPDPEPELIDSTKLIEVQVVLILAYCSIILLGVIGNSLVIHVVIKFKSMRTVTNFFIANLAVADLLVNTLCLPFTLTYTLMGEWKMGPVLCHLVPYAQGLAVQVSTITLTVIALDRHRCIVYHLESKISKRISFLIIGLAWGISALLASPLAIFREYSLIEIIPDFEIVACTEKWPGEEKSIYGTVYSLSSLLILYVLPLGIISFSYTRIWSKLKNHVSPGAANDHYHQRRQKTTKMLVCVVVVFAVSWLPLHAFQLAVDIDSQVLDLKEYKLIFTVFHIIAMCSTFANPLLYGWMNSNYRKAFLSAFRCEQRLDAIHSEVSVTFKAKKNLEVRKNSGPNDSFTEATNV
Chain of Sodium-dependent serotonin transporter (Homo sapiens) (P31645 whole entry, looked up): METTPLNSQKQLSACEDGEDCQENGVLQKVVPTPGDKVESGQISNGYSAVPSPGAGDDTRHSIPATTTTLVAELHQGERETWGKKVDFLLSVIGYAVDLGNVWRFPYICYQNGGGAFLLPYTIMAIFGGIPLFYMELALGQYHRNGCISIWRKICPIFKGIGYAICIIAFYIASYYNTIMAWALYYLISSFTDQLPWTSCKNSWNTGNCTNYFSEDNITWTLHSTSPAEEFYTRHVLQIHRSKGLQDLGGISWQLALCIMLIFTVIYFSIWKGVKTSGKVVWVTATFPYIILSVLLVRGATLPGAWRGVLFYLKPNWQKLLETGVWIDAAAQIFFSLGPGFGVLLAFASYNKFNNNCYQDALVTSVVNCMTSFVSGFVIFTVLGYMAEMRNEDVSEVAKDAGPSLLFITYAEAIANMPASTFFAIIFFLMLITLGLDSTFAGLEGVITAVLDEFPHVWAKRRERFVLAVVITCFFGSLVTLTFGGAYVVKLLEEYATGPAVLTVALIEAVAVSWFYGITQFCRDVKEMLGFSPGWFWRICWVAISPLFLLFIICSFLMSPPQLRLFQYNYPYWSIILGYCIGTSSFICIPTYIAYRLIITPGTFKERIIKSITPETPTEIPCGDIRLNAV
Chain of Tumor necrosis factor (Homo sapiens) (P01375 whole entry): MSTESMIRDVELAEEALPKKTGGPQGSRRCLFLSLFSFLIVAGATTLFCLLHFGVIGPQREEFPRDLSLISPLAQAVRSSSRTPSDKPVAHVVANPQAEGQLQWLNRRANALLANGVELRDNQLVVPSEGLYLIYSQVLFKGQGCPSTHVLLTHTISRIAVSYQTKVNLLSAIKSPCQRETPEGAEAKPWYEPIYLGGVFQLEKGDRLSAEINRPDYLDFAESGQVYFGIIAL
Chain of Beta-1 adrenergic receptor (Homo sapiens) (P08588 whole entry, looked up): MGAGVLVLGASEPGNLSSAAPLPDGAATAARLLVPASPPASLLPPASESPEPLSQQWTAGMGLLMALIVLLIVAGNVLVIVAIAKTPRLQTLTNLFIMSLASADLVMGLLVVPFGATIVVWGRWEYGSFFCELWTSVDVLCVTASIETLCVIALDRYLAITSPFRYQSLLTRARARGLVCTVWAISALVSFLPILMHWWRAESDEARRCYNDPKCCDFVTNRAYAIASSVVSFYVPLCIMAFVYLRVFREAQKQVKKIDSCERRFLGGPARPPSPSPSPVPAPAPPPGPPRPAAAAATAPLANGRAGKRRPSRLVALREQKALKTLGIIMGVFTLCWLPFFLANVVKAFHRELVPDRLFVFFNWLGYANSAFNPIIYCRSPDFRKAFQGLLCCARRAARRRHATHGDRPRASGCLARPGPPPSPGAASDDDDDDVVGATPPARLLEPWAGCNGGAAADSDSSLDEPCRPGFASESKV
Chain of Cholecystokinin receptor type A (Homo sapiens) (P32238 whole entry): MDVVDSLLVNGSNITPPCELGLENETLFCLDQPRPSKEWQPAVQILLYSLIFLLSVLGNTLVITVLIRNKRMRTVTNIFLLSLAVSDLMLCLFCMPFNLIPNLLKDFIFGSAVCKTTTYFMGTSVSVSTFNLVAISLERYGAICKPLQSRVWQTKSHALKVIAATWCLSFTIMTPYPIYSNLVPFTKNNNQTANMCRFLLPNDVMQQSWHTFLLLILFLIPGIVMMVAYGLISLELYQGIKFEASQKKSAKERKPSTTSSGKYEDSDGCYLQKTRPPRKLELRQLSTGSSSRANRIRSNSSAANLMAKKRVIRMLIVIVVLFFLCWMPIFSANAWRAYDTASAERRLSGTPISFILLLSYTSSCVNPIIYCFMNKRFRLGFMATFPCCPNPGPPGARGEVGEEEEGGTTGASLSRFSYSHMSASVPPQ
Chain of 5-hydroxytryptamine receptor 3A (Homo sapiens) (P46098 whole entry): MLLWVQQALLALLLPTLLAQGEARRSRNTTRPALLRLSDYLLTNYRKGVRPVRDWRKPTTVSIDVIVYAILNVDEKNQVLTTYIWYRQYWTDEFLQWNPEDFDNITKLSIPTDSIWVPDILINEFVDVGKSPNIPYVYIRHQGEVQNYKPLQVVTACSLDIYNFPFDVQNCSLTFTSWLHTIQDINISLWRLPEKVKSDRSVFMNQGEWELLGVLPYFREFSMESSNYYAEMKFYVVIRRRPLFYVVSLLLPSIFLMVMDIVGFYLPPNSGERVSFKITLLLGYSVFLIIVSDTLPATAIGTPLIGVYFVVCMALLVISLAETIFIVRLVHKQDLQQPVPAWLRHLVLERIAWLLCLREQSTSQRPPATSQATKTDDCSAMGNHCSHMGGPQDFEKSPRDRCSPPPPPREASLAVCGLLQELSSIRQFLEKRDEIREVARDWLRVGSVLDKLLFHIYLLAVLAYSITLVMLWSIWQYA
Chain of D(3) dopamine receptor (Homo sapiens) (P35462 whole entry): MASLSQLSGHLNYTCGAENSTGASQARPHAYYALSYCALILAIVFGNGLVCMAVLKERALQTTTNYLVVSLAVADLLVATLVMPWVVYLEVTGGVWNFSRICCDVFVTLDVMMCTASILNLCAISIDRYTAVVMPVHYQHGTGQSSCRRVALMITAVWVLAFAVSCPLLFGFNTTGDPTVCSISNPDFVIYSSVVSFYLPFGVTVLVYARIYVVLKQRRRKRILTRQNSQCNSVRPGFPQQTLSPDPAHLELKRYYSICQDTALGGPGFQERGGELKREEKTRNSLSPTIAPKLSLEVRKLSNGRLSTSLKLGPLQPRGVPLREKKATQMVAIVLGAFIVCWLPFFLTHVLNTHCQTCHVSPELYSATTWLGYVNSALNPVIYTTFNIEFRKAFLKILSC

CC(=O)N1CCN(C[C@@H](C)NC(=O)c2cc3c(-c4ccccc4)nn(C)c3s2)CC1
Activity [1]: > 50% | Activity (Rattus norvegicus [2]): > 50% | Activity [3]: > 50% | Activity (Rattus norvegicus [4]): > 50% | Activity [5]: > 50% | Activity [6]: > 50% | Activity [7]: > 50% | Activity [8]: > 50% | Activity [9]: > 50% | Activity [10]: > 50% | Activity [11]: > 50% | Activity [12]: > 50% | Activity [13]: > 50% | Activity [14]: > 50% | Activity [15]: > 50% | Activity [16]: > 50% | Activity [17]: > 50% | Activity [18]: > 50% | Activity [19]: > 50% | Activity [20]: > 50% | Activity [21]: > 50% | IC50 (P2X purinoceptor 5): > 10 µM | Activity [22]: > 50% | Activity [23]: > 50% | Activity [24]: > 50% | Activity [25]: > 50% | fraction unbound [26]: 0.11 | Activity [27]: > 50% | Activity [28]: > 50% | Activity [29]: > 50% | Activity [30]: > 50%
